In ChEMBL document CHEMBL5725340, “BMP inhibitors and methods of use thereof” (2017):
pIC50: −log10 of the molar value.

Molecular target: T1, Activin receptor type-1 (Homo sapiens, UniProt Q04771)
T1 sequence (Q04771 whole entry): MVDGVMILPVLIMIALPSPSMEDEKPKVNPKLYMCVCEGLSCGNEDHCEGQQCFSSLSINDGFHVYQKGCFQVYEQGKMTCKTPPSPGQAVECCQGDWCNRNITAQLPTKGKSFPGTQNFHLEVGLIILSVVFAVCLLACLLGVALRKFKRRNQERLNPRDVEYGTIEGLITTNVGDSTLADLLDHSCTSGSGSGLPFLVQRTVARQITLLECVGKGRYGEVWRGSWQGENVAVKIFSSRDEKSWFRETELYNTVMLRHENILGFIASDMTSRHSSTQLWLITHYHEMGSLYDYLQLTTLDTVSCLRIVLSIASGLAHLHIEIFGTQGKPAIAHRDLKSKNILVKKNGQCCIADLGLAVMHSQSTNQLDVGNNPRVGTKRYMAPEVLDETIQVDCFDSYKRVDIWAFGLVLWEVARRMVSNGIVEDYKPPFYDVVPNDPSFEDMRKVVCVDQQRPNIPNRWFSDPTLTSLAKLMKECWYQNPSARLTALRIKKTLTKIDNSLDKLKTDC
Experiment: ALK1-6 enzymatic assays: Specifically, compounds were assayed using LANCE® Ultra ULight¿ technology (Perkin Elmer) against human ALK1-6 enzymes (ALK1: Life Technologies, ALK2-6: Carna Biosciences). Briefly, ALK enzyme (10 nM) was prepared in kinase buffer (50 mM HEPES, pH 7.5, 10 mM MgCl2, […], 0.005% Tween-20 and 2 mM DTT) and dispensed at 2.5 μL/well into a 1536 well, white, solid …

- pIC50: 7.64
SMILES: Cc1cc(-c2cnn3cc(-c4ccc(C5CCNCC5)cc4)cnc23)c2ccccc2n1
